Laboratory results from patent US9902739B2, “Small molecule inhibitors of G protein coupled receptor 6 kinases polypeptides” (Mayo Foundation for Medical Education and Research, priority 2014, dated 2018).

Molecular target: T1, GRK6, recombinant full-length GST-tagged human protein (Homo sapiens, UniProt P43250)
T1 construct: Enzyme: 20 nM GRK6, recombinant full-length GST-tagged human protein; GST
Experiment: GRK6 assay, IC50 determination (8-point concentration-response)
Format: biochemical
Conditions: conditions as Example 18
Description: The following assay conditions were used.
Buffer: 50 mM TRIS-HCl, pH 7.5, 5 mM MgCl2, 2 mM DTT, 0.01% Triton X-100, 10 μM Na3VO4, 10 μM b-GP, 1% DMSO
Enzyme: 20 nM GRK6, recombinant full-length GST-tagged human protein
Peptide substrate (Peptide 216): 1 μM
One hundred two compounds (1-1-1-102) were further characterized by determining IC50 values in a GRK6 assay. This screen has been previously described in WO 2013/063458, which is incorporated by reference in its entirety herein. Briefly, the following activities were performed: 8-point concentration-response determinations in singlicate wells (top concentration=60 μM, 3-fold dilution steps); Repeat tests for QC failed or inconclusive compounds; and Repeat tests (titrate down) for compounds with >50% inhibition at all tested concentrations.
Twelve compounds (2-1-2-12) were further characterized by determining the IC50 values in a GRK6 assay. This screen has been previously described in WO 2013/063458, which is incorporated by reference in its entirety herein. Specific activities were performed as described above (Example 18).
Thirty-six compounds (3-1-3-36) were further characterized by determining the IC50 values in a GRK6 assay. This screen has been previously described in WO 2013/063458, which is incorporated by reference in its entirety herein. Specific activities were performed as described above (Example 18).
Fifty-four compounds (4-1-4-54) were further characterized by determining the IC50 values in a GRK6 assay. This screen has been previously described in WO 2013/063458, which is incorporated by reference in its entirety herein. Specific activities were performed as described above (Example 18).

T1 sequence (P43250 whole entry): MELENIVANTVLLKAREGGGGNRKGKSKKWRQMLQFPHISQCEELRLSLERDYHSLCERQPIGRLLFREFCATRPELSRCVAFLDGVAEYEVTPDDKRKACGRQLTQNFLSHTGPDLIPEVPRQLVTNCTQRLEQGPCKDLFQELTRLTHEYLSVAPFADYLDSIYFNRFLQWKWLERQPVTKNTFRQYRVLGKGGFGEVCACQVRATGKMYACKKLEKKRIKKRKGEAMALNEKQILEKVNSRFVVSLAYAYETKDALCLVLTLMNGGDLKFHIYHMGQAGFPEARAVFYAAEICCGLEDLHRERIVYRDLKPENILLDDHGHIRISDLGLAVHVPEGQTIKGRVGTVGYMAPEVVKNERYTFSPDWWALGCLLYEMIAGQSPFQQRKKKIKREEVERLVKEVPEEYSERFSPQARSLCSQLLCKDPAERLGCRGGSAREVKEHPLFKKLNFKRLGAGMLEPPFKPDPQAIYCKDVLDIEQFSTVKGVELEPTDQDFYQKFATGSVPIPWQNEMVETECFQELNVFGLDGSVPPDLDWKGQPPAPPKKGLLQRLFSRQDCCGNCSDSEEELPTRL

Row | SMILES | IC50 (Series 3 (Table 13)) [µM] | IC50 (Series 4 (Table 14)) [µM]
1 | c1ccc(-c2ccc(-c3nnc(SCc4nnn[nH]4)[nH]3)o2)cc1 [Compound 3-28] | 6.21 | –
2 | Fc1ccc(-c2ccc(-c3nnc(SCc4nnn[nH]4)[nH]3)o2)cc1F [Compound 3-29] | 6.9 | –
3 | CNS(=O)(=O)c1cccc(-c2ccc(-c3nnc(SCc4nnn[nH]4)[nH]3)o2)c1 [Compound 3-30] | 7.16 | –
4 | CS(=O)(=O)c1cccc(-c2ccc(-c3nnc(SCc4nnn[nH]4)[nH]3)o2)c1 [Compound 3-31] | 7.45 | –
5 | c1cncc(-c2ccc(-c3nnc(SCc4nnn[nH]4)[nH]3)o2)c1 [Compound 3-32] | 8.63 | –
6 | N#Cc1ccc(-c2ccc(-c3nnc(SCc4nnn[nH]4)[nH]3)o2)cc1 [Compound 3-33] | 8.91 | –
7 | CN(C)S(=O)(=O)c1cccc(-c2ccc(-c3nnc(SCc4nnn[nH]4)[nH]3)o2)c1 [Compound 3-34] | 9.09 | –
8 | Cc1cccc(-c2nnc(SCc3nnn[nH]3)[nH]2)c1 [Compound 3-35, 5-(((5-(m-tolyl)-1H-1,2,4-triazol-3-yl)thio)methyl)-1H-tetrazole] | 16.9 | –
9 | O=[N+]([O-])c1cc(-c2ccccc2)cc(-c2nnc(SCc3nnn[nH]3)[nH]2)c1 [Compound 3-36] | 9.05 | –
10 | O=C(O)CSc1nnc(-c2ccc(F)cn2)[nH]1 [Compound 4-35] | – | 78.7
11 | CCc1nc(C)c(-c2nnc(SCC(=O)O)[nH]2)[nH]1 [Compound 4-36] | – | 82.7
12 | Cn1cc(Cl)c(-c2nnc(SCC(=O)O)[nH]2)n1 [Compound 4-37] | – | 89.2
13 | Cc1c(-c2nnc(SCC(=O)O)[nH]2)cnn1C [Compound 4-38] | – | 95.4
14 | NC(=O)Cn1cc(-c2nnc(SCC(=O)O)[nH]2)c2ccccc21 [Compound 4-39] | – | > 100
15 | Cc1noc(C)c1-c1nnc(SCC(=O)O)[nH]1 [Compound 4-40] | – | > 100
16 | O=C(O)CSc1nnc(-c2cccnc2N2CCOCC2)[nH]1 [Compound 4-41] | – | > 100
17 | O=C(O)CSc1nnc(-c2cc3cccc4c3n(c2=O)CC4)[nH]1 [Compound 4-42] | – | > 100
18 | Cc1nc(C)c(-c2nnc(SCC(=O)O)[nH]2)s1 [Compound 4-43] | – | > 100
19 | O=C(O)CSc1nnc(-c2cccn2S(=O)(=O)c2ccccc2)[nH]1 [Compound 4-44] | – | > 100
20 | O=C(O)CSc1nnc(-c2ccc3cccnc3n2)[nH]1 [Compound 4-45] | – | > 86
21 | Cc1nc(-c2nnc(SCC(=O)O)[nH]2)c2ccccn12 [Compound 4-46] | – | > 80
22 | CC(C)(C)C(=O)Nc1ncccc1-c1nnc(SCC(=O)O)[nH]1 [Compound 4-47] | – | > 64
23 | O=C(O)CSc1nnc(-c2ccc(C(F)(F)F)nc2)[nH]1 [Compound 4-48] | – | > 54
24 | O=C(O)CSc1nnc(-c2c[nH]c3ccccc23)[nH]1 [Compound 4-49] | – | > 100
25 | Cc1nc[nH]c1-c1nnc(SCC(=O)O)[nH]1 [Compound 4-50] | – | > 100
26 | Cc1ncsc1-c1nnc(SCC(=O)O)[nH]1 [Compound 4-51] | – | > 100
27 | Cc1nc(-c2nnc(SCC(=O)O)[nH]2)c[nH]1 [Compound 4-52] | – | > 100
28 | COc1ccc2cc(-c3[nH]nc(SCC(=O)O)c3Br)ccc2c1 [Compound 4-53] | – | > 100

More lines, now with the values ahead:

Row | IC50 (Series 3 (Table 13)) [µM] | IC50 (Series 4 (Table 14)) [µM] | SMILES
29 | – | 0.595 | O=C(O)CSc1nnc(-c2ccc(-c3cc(Cl)cc(Cl)c3)s2)[nH]1 [Compound 4-1]
30 | – | 0.78 | O=C(O)CSc1nnc(-c2cnc3cc(OCc4ccccc4)ccc3c2)[nH]1 [Compound 4-2]
31 | – | 1.01 | O=C(O)CSc1nnc(-c2cnn(-c3ccccc3)c2)[nH]1 [Compound 4-3]
32 | – | 1.12 | O=C(O)CSc1nnc(-c2cnc3ccccc3c2)[nH]1 [Compound 4-4]
33 | – | 1.27 | O=C(O)CSc1nnc(-c2ccc(-c3ccccc3)s2)[nH]1 [Compound 4-5]
34 | – | 2.01 | O=C(O)CSc1nnc(-c2cnn(-c3cccc(Cl)c3)c2)[nH]1 [Compound 4-6, 2-((5-(1-(3-chlorophenyl)-1H-pyrazol-4-yl)-4H-1,2,4-triazol-3-yl)thio)acetic acid]
35 | – | 2.56 | O=C(O)CSc1nnc(-c2csc3ccccc23)[nH]1 [Compound 4-7]
36 | – | 2.58 | O=C(O)CSc1nnc(-c2cc3ccccc3s2)[nH]1 [Compound 4-8]
37 | – | 2.61 | Cc1ccc2sc(-c3nnc(SCC(=O)O)[nH]3)cc2c1 [Compound 4-9]
38 | – | 2.98 | O=C(O)CSc1nnc(-c2ccc(-c3ccc4ccccc4c3)s2)[nH]1 [Compound 4-10]
39 | – | 3.64 | O=C(O)CSc1nnc(-c2cnc(-c3ccccc3)s2)[nH]1 [Compound 4-11]
40 | – | 4.11 | O=C(O)CSc1nnc(-c2cncc(Br)c2)[nH]1 [Compound 4-12]
41 | – | 4.64 | Nc1ncc(-c2nnc(SCC(=O)O)[nH]2)s1 [Compound 4-13]
42 | – | 5.7 | Cn1ncc(-c2nnc(SCC(=O)O)[nH]2)c1-c1ccccc1 [Compound 4-14]
43 | – | 6.29 | O=C(O)CSc1nnc(-c2c[nH]nc2-c2ccccc2)[nH]1 [Compound 4-15]
44 | – | 6.54 | O=C(O)CSc1nnc(-c2ccc(-c3ccccn3)s2)[nH]1 [Compound 4-16]
45 | – | 7.1 | CN(C)c1ncc(-c2nnc(SCC(=O)O)[nH]2)cn1 [Compound 4-17]

Row | IC50 (Series 3 (Table 13)) [µM] | IC50 (Series 4 (Table 14)) [µM] | SMILES
46 | – | 7.41 | Cn1nc(C(F)(F)F)cc1-c1ccc(-c2nnc(SCC(=O)O)[nH]2)s1 [Compound 4-18]
47 | – | 8.96 | CCc1n[nH]cc1-c1nnc(SCC(=O)O)[nH]1 [Compound 4-19]
48 | – | 9.21 | O=C(O)CSc1nnc(-c2ccc(Oc3ccccc3)nc2)[nH]1 [Compound 4-20]
49 | – | 9.61 | Nc1ncc(-c2nnc(SCC(=O)O)[nH]2)cn1 [Compound 4-21]
50 | – | 11.3 | O=C(O)CSc1nnc(-c2ccc(N3CCOCC3)nc2)[nH]1 [Compound 4-22]
51 | – | 12.3 | O=C(O)CSc1nnc(-c2[nH]ncc2Br)[nH]1 [Compound 4-23]
52 | – | 12.9 | COc1cncc(-c2nnc(SCC(=O)O)[nH]2)c1 [Compound 4-24]
53 | – | 13 | O=C(O)CSc1nnc(-c2ccc3ccccc3n2)[nH]1 [Compound 4-25]
54 | – | 13 | COc1ccc(-c2nnc(SCC(=O)O)[nH]2)cn1 [Compound 4-26]
55 | – | 20.7 | COc1ccc2c(-c3nnc(SCC(=O)O)[nH]3)c[nH]c2c1 [Compound 4-27]
56 | – | 22.3 | O=C(O)CSc1nnc(-c2csnn2)[nH]1 [Compound 4-28]
57 | – | 27.3 | Cc1csc2sc(-c3nnc(SCC(=O)O)[nH]3)c(C)c12 [Compound 4-29]
58 | – | 27.8 | Cc1ncc(-c2nnc(SCC(=O)O)[nH]2)cn1 [Compound 4-30]
59 | – | 31.2 | CSc1nc(-c2nnc(SCC(=O)O)[nH]2)ccc1C#N [Compound 4-31]
60 | – | 32.5 | COc1cccc(-c2nnc(SCC(=O)O)[nH]2)n1 [Compound 4-32]
61 | – | 35.3 | O=C(O)CSc1nnc(-c2ccc(Cl)cn2)[nH]1 [Compound 4-33]
62 | – | 38.8 | Cn1c(-c2nnc(SCC(=O)O)[nH]2)cc2ccccc21 [Compound 4-34]
